Experimental data taken from US20260315494A1, “TREATMENT OF BREAST TISSUE” (Havah Therapeutics Pty Ltd, priority 2023, published 2026).
Several values for one entry are separate records, joined by “and”; a condition that tells them apart may be missing. Equal values may be shown once.

Assay: Single-dose pharmacokinetics of T+Ai pellet implant (80 mg testosterone + 4 mg anastrozole, subcutaneous)
Details: for concentration at 24 h: 24 h post-dose
Description: The premenopausal women were aged between 35 and 55 years of age with a BMI range of 20-30 kg/m^2. […] The implant was intended to be left in situ and was expected to be almost completely absorbed within three months following insertion.
A total of 11 subjects were dosed with the implant and included in the safety analysis set. All 11 subjects were included in the pharmacokinetics (PK) analysis set.
(NB: the sample collection time point at 6 hours post-dose was added for the third and subsequent subject and so serum measurements were not determined for the first two subjects as noted below).
Patients seeking treatment with the T+Ai for reduction in high MBD were eligible for the study. Following successful screening, subjects attended the Wellend Health Clinic for dosing. The trial was designed to dose all subjects while in the luteal phase of their menstrual cycle to avoid the highly changing hormonal environment of the follicular phase. Following insertion of the implant, PK blood sampling was carried out for a duration of three months (see below). Briefly, samples were taken repeatedly on the day of dosing, daily during the first week, weekly for the next four weeks and every second week during the last eight weeks of a total sampling period of three months.
The sampling schedule was revised with the addition of one blood sample (at 6 hours post-dose as discussed above), and no adjustment of the timing of existing time points was made. The duration of sampling was not extended.
Following dosing on Day 1, blood samples were taken pre-dose (within one hour of dosing) and at 1, 2, 4, 6, 8 and 12 hours. Participants returned for a blood sample to be taken at 9 am in the morning on Days 2, 3, 4, 5, 8, 15, 22, 29, 43, 57, 71 and 85.

CC(C)(C#N)c1cc(Cn2cncn2)cc(C(C)(C)C#N)c1 [Anastrozole, 2,2′-[5-(1H-1,2,4-triazol-1-ylmethyl)-1,3-phenylene]bis(2-methylpropanenitrile)]
anastrozole level versus conventional full oral dosing (compared with conventional full oral dosing): 5 times lower
Tmax (human, in vivo, sc, 4 mg): 24 to 72 h
concentration at 1008 h (human, in vivo, sc, 4 mg, Measured serum anastrozole, GeoMean, geometric mean (BLQ excluded), 1008 h post-dose): 0.49 ng/mL
concentration at 1344 h (human, in vivo, sc, 4 mg, Measured serum anastrozole, GeoMean, geometric mean (BLQ excluded), 1344 h post-dose): 0.3 ng/mL
concentration at 1680 h (human, in vivo, sc, 4 mg, Measured serum anastrozole, GeoMean, geometric mean (BLQ excluded), 1680 h post-dose): 0.26 ng/mL
concentration at 2016 h (human, in vivo, sc, 4 mg, Measured serum anastrozole, GeoMean, geometric mean (BLQ excluded), 2016 h post-dose): 0.21 ng/mL
concentration at 1 h (human, in vivo, sc, 4 mg, Measured serum anastrozole, GeoMean, geometric mean, 1 h post-dose): 0.35 ng/mL
concentration at 2 h (human, in vivo, sc, 4 mg, Measured serum anastrozole, GeoMean, geometric mean, 2 h post-dose): 0.61 ng/mL
concentration at 4 h (human, in vivo, sc, 4 mg, Measured serum anastrozole, GeoMean, geometric mean, 4 h post-dose): 1.15 ng/mL
concentration at 6 h (human, in vivo, sc, 4 mg, Measured serum anastrozole, GeoMean, geometric mean, 6 h post-dose): 2.31 ng/mL
concentration at 8 h (human, in vivo, sc, 4 mg, Measured serum anastrozole, GeoMean, geometric mean, 8 h post-dose): 3.23 ng/mL
concentration at 12 h (human, in vivo, sc, 4 mg, Measured serum anastrozole, GeoMean, geometric mean, 12 h post-dose): 3.97 ng/mL
concentration at 24 h (human, in vivo, sc, 4 mg, Measured serum anastrozole, GeoMean, geometric mean): 4.77 ng/mL
concentration at 48 h (human, in vivo, sc, 4 mg, Measured serum anastrozole, GeoMean, geometric mean, 48 h post-dose): 4.98 ng/mL
concentration at 72 h (human, in vivo, sc, 4 mg, Measured serum anastrozole, GeoMean, geometric mean, 72 h post-dose): 4.92 ng/mL
concentration at 96 h (human, in vivo, sc, 4 mg, Measured serum anastrozole, GeoMean, geometric mean, 96 h post-dose): 4.58 ng/mL
concentration at 168 h (human, in vivo, sc, 4 mg, Measured serum anastrozole, GeoMean, geometric mean, 168 h post-dose): 3.5 ng/mL
concentration at 504 h (human, in vivo, sc, 4 mg, Measured serum anastrozole, GeoMean, geometric mean, 504 h post-dose): 1.42 ng/mL
concentration at 24 h (human, in vivo, sc, 4 mg, Measured serum anastrozole, individual subject): 6.08 ng/mL
concentration at 48 h (human, in vivo, sc, 4 mg, Measured serum anastrozole, individual subject, 48 h post-dose): 6.17 ng/mL
concentration at 72 h (human, in vivo, sc, 4 mg, Measured serum anastrozole, individual subject, 72 h post-dose): 4.94 ng/mL
concentration at 96 h (human, in vivo, sc, 4 mg, Measured serum anastrozole, individual subject, 96 h post-dose): 4.36 ng/mL
concentration at 168 h (human, in vivo, sc, 4 mg, Measured serum anastrozole, individual subject, 168 h post-dose): 2.84 ng/mL
concentration at 1 h (human, in vivo, sc, 4 mg, Measured serum anastrozole, mean, 1 h post-dose): 0.38 ng/mL
concentration at 2 h (human, in vivo, sc, 4 mg, Measured serum anastrozole, mean, 2 h post-dose): 0.7 ng/mL
concentration at 4 h (human, in vivo, sc, 4 mg, Measured serum anastrozole, mean, 4 h post-dose): 1.37 ng/mL
concentration at 6 h (human, in vivo, sc, 4 mg, Measured serum anastrozole, mean, 6 h post-dose): 2.58 ng/mL
concentration at 8 h (human, in vivo, sc, 4 mg, Measured serum anastrozole, mean, 8 h post-dose): 3.44 ng/mL
concentration at 12 h (human, in vivo, sc, 4 mg, Measured serum anastrozole, mean, 12 h post-dose): 4.06 ng/mL
concentration at 24 h (human, in vivo, sc, 4 mg, Measured serum anastrozole, mean): 4.84 ng/mL
concentration at 48 h (human, in vivo, sc, 4 mg, Measured serum anastrozole, mean, 48 h post-dose): 5.06 ng/mL
concentration at 72 h (human, in vivo, sc, 4 mg, Measured serum anastrozole, mean, 72 h post-dose): 4.96 ng/mL
concentration at 96 h (human, in vivo, sc, 4 mg, Measured serum anastrozole, mean, 96 h post-dose): 4.62 ng/mL
concentration at 168 h (human, in vivo, sc, 4 mg, Measured serum anastrozole, mean, 168 h post-dose): 3.57 ng/mL
concentration at 504 h (human, in vivo, sc, 4 mg, Measured serum anastrozole, mean, 504 h post-dose): 1.47 ng/mL
concentration at 1008 h (human, in vivo, sc, 4 mg, Measured serum anastrozole, mean, 1008 h post-dose): 0.49 ng/mL
concentration at 1344 h (human, in vivo, sc, 4 mg, Measured serum anastrozole, mean, 1344 h post-dose): 0.22 ng/mL
concentration at 1680 h (human, in vivo, sc, 4 mg, Measured serum anastrozole, mean, 1680 h post-dose): 0.1 ng/mL
concentration at 2016 h (human, in vivo, sc, 4 mg, Measured serum anastrozole, mean, 2016 h post-dose): 0.04 ng/mL
concentration at 1 h (human, in vivo, sc, 4 mg, Measured serum anastrozole, median, 1 h post-dose): 0.32 ng/mL
concentration at 2 h (human, in vivo, sc, 4 mg, Measured serum anastrozole, median, 2 h post-dose): 0.62 ng/mL
concentration at 4 h (human, in vivo, sc, 4 mg, Measured serum anastrozole, median, 4 h post-dose): 1.12 ng/mL
concentration at 6 h (human, in vivo, sc, 4 mg, Measured serum anastrozole, median, 6 h post-dose): 3.08 ng/mL
concentration at 8 h (human, in vivo, sc, 4 mg, Measured serum anastrozole, median, 8 h post-dose): 3.5 ng/mL
concentration at 12 h (human, in vivo, sc, 4 mg, Measured serum anastrozole, median, 12 h post-dose): 4.32 ng/mL
concentration at 24 h (human, in vivo, sc, 4 mg, Measured serum anastrozole, median): 4.96 ng/mL
concentration at 48 h (human, in vivo, sc, 4 mg, Measured serum anastrozole, median, 48 h post-dose): 5.05 ng/mL
concentration at 72 h (human, in vivo, sc, 4 mg, Measured serum anastrozole, median, 72 h post-dose): 4.92 ng/mL
concentration at 96 h (human, in vivo, sc, 4 mg, Measured serum anastrozole, median, 96 h post-dose): 4.6 ng/mL
concentration at 168 h (human, in vivo, sc, 4 mg, Measured serum anastrozole, median, 168 h post-dose): 3.58 ng/mL
concentration at 504 h (human, in vivo, sc, 4 mg, Measured serum anastrozole, median, 504 h post-dose): 1.36 ng/mL
concentration at 1008 h (human, in vivo, sc, 4 mg, Measured serum anastrozole, median, 1008 h post-dose): 0.4 ng/mL
concentration at 1344 h (human, in vivo, sc, 4 mg, Measured serum anastrozole, median, 1344 h post-dose): 0.16 ng/mL
concentration at 2016 h (human, in vivo, sc, 4 mg, plasma anastrozole concentration after 12 weeks, below limit of quantitation in most participants after 12 weeks): < 0.1 ng/mL
Measured serum anastrozole (individual subject, 1 h post-dose, 60 min): 0.215 ng/mL and 0.525 ng/mL and 0.218 ng/mL and 0.515 ng/mL and 0.394 ng/mL and 0.127 ng/mL and 0.855 ng/mL and 0.321 ng/mL and 0.243 ng/mL and 0.751 ng/mL
Measured serum anastrozole (individual subject, 2 h post-dose, 120 min): 0.404 ng/mL and 0.615 ng/mL and 1.30 ng/mL and 0.887 ng/mL and 0.831 ng/mL and 0.306 ng/mL and 1.04 ng/mL and 0.596 ng/mL and 0.509 ng/mL and 0.180 ng/mL and 1.02 ng/mL
Measured serum anastrozole (individual subject, 4 h post-dose, 240 min): 1.03 ng/mL and 2.97 ng/mL and 2.23 ng/mL and 0.902 ng/mL and 1.50 ng/mL and 0.582 ng/mL and 2.11 ng/mL
Measured serum anastrozole (individual subject, 6 h post-dose, 360 min): 3.11 ng/mL and 3.07 ng/mL and 3.42 ng/mL (2×) and 1.63 ng/mL and 3.21 ng/mL and 1.62 ng/mL and 0.651 ng/mL
Measured serum anastrozole (individual subject, 8 h post-dose, 480 min): 4.28 ng/mL and 3.41 ng/mL and 3.48 ng/mL and 4.75 ng/mL and 4.16 ng/mL and 2.18 ng/mL and 3.66 ng/mL and 3.33 ng/mL and 1.06 ng/mL and 3.99 ng/mL
Measured serum anastrozole (individual subject, 12 h post-dose, 720 min): 5.13 ng/mL and 3.27 ng/mL and 4.42 ng/mL and 3.87 ng/mL and 3.32 ng/mL and 4.86 ng/mL and 4.18 ng/mL and 2.25 ng/mL
Measured serum anastrozole (individual subject, 48 h post-dose, 2880 min): 3.95 ng/mL and 5.85 ng/mL and 5.58 ng/mL and 6.07 ng/mL and 4.85 ng/mL and 3.31 ng/mL and 5.28 ng/mL
Measured serum anastrozole (individual subject, 72 h post-dose, 4320 min): 4.72 ng/mL and 5.16 ng/mL and 5.00 ng/mL and 6.29 ng/mL and 5.68 ng/mL and 4.76 ng/mL and 3.66 ng/mL and 4.85 ng/mL
Measured serum anastrozole (individual subject, 96 h post-dose, 5760 min): 4.12 ng/mL and 4.67 ng/mL and 5.17 ng/mL
Measured serum anastrozole (individual subject, 168 h post-dose, 10080 min): 4.35 ng/mL
Measured serum anastrozole (individual subject, 504 h post-dose, 30240 min): 1.70 ng/mL and 1.83 ng/mL and 1.59 ng/mL
Measured serum anastrozole (individual subject, 1008 h post-dose, 60480 min): 0.332 ng/mL and 0.665 ng/mL and 0.505 ng/mL and 0.624 ng/mL
Measured serum anastrozole (individual subject, 1344 h post-dose, 80640 min): 0.144 ng/mL and 0.279 ng/mL
Measured serum anastrozole (individual subject, 1680 h post-dose, 100800 min): 0.143 ng/mL
Measured serum anastrozole, mean (mean, pre-dose): 0.00 ng/mL
Measured serum anastrozole, median (median, pre-dose): 0.00 ng/mL
average Cmax, plasma anastrozole (plasma): 5.30 ng/mL
average terminal half-life, anastrozole (plasma): 336 h
median Tmax for plasma anastrozole (plasma, post-dose): 48 h
